# “And” between values parts separate entries of the source, which are not always exact repeats. Equal values may be shown once.
# Experiment: Biodistribution of [^18F]JHU1221785 with cold FAPI-04 blocker
# Format: in vivo, mouse
# Conditions: for % ID/g Bladder / % ID/g Blood / % ID/g Brain / % ID/g Fat / % ID/g Heart / % ID/g Kidney / % ID/g Large intestine / % ID/g Lung / % ID/g Muscle / % ID/g Pancreas / % ID/g Salivary gland / % ID/g Small intestine / % ID/g Spleen / % ID/g Stomach / % ID/g Tumor: single mouse
# [1] = + Blocker Cold FAPI-04 (10 nmole), 60 min
compound,measurement,setting,value
N#C[C@@H]1CCCN1C(=O)CNC(=O)c1ccnc2ccc(OCCCNC(=O)[C@@H](CC(=O)O)NC(=O)[C@@H](CC(=O)O)NC(=O)c3ccc([18F])nc3)cc12 [[^18F]JHU1221785],% ID/g Mean Bladder,30 min,2.81 % ID/g
same,% ID/g Bladder,30 min,0.93 % ID/g and 4.69 % ID/g
same,% ID/g Mean Bladder,60 min,0.84 % ID/g
same,% ID/g Bladder,60 min,0.76 % ID/g and 0.92 % ID/g
same,% ID/g Mean Bladder,[1],0.45 % ID/g
same,% ID/g Bladder,[1],0.23 % ID/g and 0.67 % ID/g
same,% ID/g Mean Blood,30 min,4.94 % ID/g
same,% ID/g Blood,30 min,5.98 % ID/g and 3.90 % ID/g
same,% ID/g Mean Blood,60 min,3.57 % ID/g
same,% ID/g Blood,60 min,2.56 % ID/g and 4.57 % ID/g
same,% ID/g Mean Blood,[1],4.68 % ID/g
same,% ID/g Blood,[1],0.11 % ID/g and 9.26 % ID/g
same,% ID/g Mean Brain,30 min,0.14 % ID/g
same,% ID/g Brain,30 min,0.14 % ID/g and 0.15 % ID/g
same,% ID/g Mean Brain,60 min,0.10 % ID/g
same,% ID/g Brain,60 min,0.09 % ID/g and 0.12 % ID/g
same,% ID/g Mean Brain,[1],0.03 % ID/g
same,% ID/g Brain,[1],0.02 % ID/g and 0.04 % ID/g
same,% ID/g Mean Fat,30 min,0.20 % ID/g
same,% ID/g Fat,30 min,0.21 % ID/g and 0.19 % ID/g
same,% ID/g Mean Fat,60 min,0.22 % ID/g
same,% ID/g Fat,60 min,0.22 % ID/g and 0.21 % ID/g
same,% ID/g Mean Fat,[1],0.12 % ID/g
same,% ID/g Fat,[1],0.03 % ID/g and 0.21 % ID/g
same,% ID/g Mean Femur,30 min,2.61 % ID/g
same,% ID/g Mean Femur,60 min,2.07 % ID/g
same,% ID/g Mean Femur,[1],1.51 % ID/g
same,% ID/g Mean Heart,30 min,2.26 % ID/g
same,% ID/g Heart,30 min,2.51 % ID/g and 2.01 % ID/g
same,% ID/g Mean Heart,60 min,1.56 % ID/g
same,% ID/g Heart,60 min,1.38 % ID/g and 1.73 % ID/g
same,% ID/g Mean Heart,[1],0.07 % ID/g
same,% ID/g Heart,[1],0.06 % ID/g and 0.07 % ID/g
same,% ID/g Mean Kidney,30 min,2.47 % ID/g
same,% ID/g Kidney,30 min,1.60 % ID/g and 3.33 % ID/g
same,% ID/g Mean Kidney,60 min,0.91 % ID/g
same,% ID/g Kidney,60 min,0.79 % ID/g and 1.04 % ID/g
same,% ID/g Mean Kidney,[1],0.46 % ID/g
same,% ID/g Kidney,[1],0.41 % ID/g and 0.51 % ID/g
same,% ID/g Mean Large intestine,30 min,0.72 % ID/g
same,% ID/g Large intestine,30 min,0.58 % ID/g and 0.86 % ID/g
same,% ID/g Mean Large intestine,60 min,0.69 % ID/g
same,% ID/g Large intestine,60 min,0.61 % ID/g and 0.78 % ID/g
same,% ID/g Mean Large intestine,[1],0.20 % ID/g
same,% ID/g Large intestine,[1],0.08 % ID/g and 0.33 % ID/g
same,% ID/g Mean Liver,30 min,7.32 % ID/g
same,% ID/g Mean Liver,60 min,7.84 % ID/g
same,% ID/g Mean Liver,[1],9.89 % ID/g
same,% ID/g Mean Lung,30 min,2.65 % ID/g
same,% ID/g Lung,30 min,2.77 % ID/g and 2.53 % ID/g
same,% ID/g Mean Lung,60 min,2.18 % ID/g
same,% ID/g Lung,60 min,1.70 % ID/g and 2.65 % ID/g
same,% ID/g Mean Lung,[1],0.17 % ID/g
same,% ID/g Lung,[1],0.13 % ID/g and 0.20 % ID/g
same,% ID/g Mean Muscle,30 min,0.96 % ID/g
same,% ID/g Muscle,30 min,0.81 % ID/g and 1.12 % ID/g
same,% ID/g Mean Muscle,60 min,0.98 % ID/g
same,% ID/g Muscle,60 min,1.06 % ID/g and 0.89 % ID/g
same,% ID/g Mean Muscle,[1],0.06 % ID/g
same,% ID/g Muscle,[1],0.04 % ID/g and 0.07 % ID/g
same,% ID/g Mean Pancreas,30 min,2.31 % ID/g
same,% ID/g Pancreas,30 min,1.92 % ID/g and 2.71 % ID/g
same,% ID/g Mean Pancreas,60 min,2.07 % ID/g
same,% ID/g Pancreas,60 min,1.96 % ID/g and 2.17 % ID/g
same,% ID/g Mean Pancreas,[1],0.13 % ID/g
same,% ID/g Pancreas,[1],0.05 % ID/g and 0.22 % ID/g
same,% ID/g Mean Salivary gland,30 min,2.93 % ID/g
same,% ID/g Salivary gland,30 min,2.81 % ID/g and 3.05 % ID/g
same,% ID/g Mean Salivary gland,60 min,3.45 % ID/g
same,% ID/g Salivary gland,60 min,2.17 % ID/g and 4.73 % ID/g
same,% ID/g Mean Salivary gland,[1],0.05 % ID/g
same,% ID/g Salivary gland,[1],0.04 % ID/g and 0.06 % ID/g
same,% ID/g Mean Small intestine,30 min,2.49 % ID/g
same,% ID/g Small intestine,30 min,2.60 % ID/g and 2.38 % ID/g
same,% ID/g Mean Small intestine,60 min,1.83 % ID/g
same,% ID/g Small intestine,60 min,1.65 % ID/g and 2.01 % ID/g
same,% ID/g Mean Small intestine,[1],3.54 % ID/g
same,% ID/g Small intestine,[1],0.88 % ID/g and 6.19 % ID/g
same,% ID/g Mean Spleen,30 min,1.00 % ID/g
same,% ID/g Spleen,30 min,1.03 % ID/g and 0.97 % ID/g
same,% ID/g Mean Spleen,60 min,0.93 % ID/g
same,% ID/g Spleen,60 min,0.78 % ID/g and 1.09 % ID/g
same,% ID/g Mean Spleen,[1],0.16 % ID/g
same,% ID/g Spleen,[1],0.08 % ID/g and 0.25 % ID/g
same,% ID/g Mean Stomach,30 min,0.82 % ID/g
same,% ID/g Stomach,30 min,0.72 % ID/g and 0.92 % ID/g
same,% ID/g Mean Stomach,60 min,0.71 % ID/g
same,% ID/g Stomach,60 min,0.60 % ID/g and 0.81 % ID/g
same,% ID/g Mean Stomach,[1],0.16 % ID/g
same,% ID/g Stomach,[1],0.09 % ID/g and 0.23 % ID/g
same,% ID/g Mean Tumor,30 min,1.24 % ID/g
same,% ID/g Tumor,30 min,1.14 % ID/g and 1.34 % ID/g
same,% ID/g Mean Tumor,60 min,2.23 % ID/g
same,% ID/g Tumor,60 min,2.59 % ID/g and 1.47 % ID/g
same,% ID/g Mean Tumor,[1],0.10 % ID/g
same,% ID/g Tumor,[1],0.08 % ID/g and 0.11 % ID/g
